Consider 14 molecules from patent US9353150B2, “Substituted pyrazino[1′,2′:1 ,5]pyrrolo[2,3-b]-indole-1,4-diones for cancer treatment” (Massachusetts Institute of Technology, priority 2012, dated 2016).

In assay [1] the test system is HeLa (cervical carcinoma). The experiment in a line: 72-hour IC50 determination for adherent cells using sulforhodamine B (SRB). It counts as cell-based, human. How it is done:
(§1) Certain synthesized compounds were screened for their ability to induce death in two human cancer cell lines: U-937 (leukemic monocyte lymphoma) and HeLa (cervical cancer).
(§2) Cells were grown in media supplemented with fetal bovine serum (FBS) and antibiotics ([…]). Specifically, experiments were performed using the following cell lines and media compositions: U-937, HeLa, H460, and 786-O (RPMI-1640+10% FBS), and MCF7 (EMEM+10% FBS). Cells were incubated at 37° C. in a 5% CO2, 95% humidity atmosphere.
(§3) Adherent cells (HeLa, H460, 786-O, and MCF7) were added into 96-well plates (5,000 cells/well for HeLa cell line; 2,000 cells/well for H460, 786-O, and MCF7 cell lines) in 100 μL media and were allowed to adhere for 2-3 hours. Compounds were solubilized in DMSO as 100× stocks, added directly to the cells (100 μL final volume), and tested over a range of concentrations in triplicate (1% DMSO final) on a half-log scale. Concentrations tested ranged from […] to 10 μM, depending on the potency of the compound. DMSO and cell-free wells served as the live and dead control, respectively. After 72 hours of continuous exposure, the plates were evaluated using the SRB colorimetric assay as described previously (Vichai, V.; Kirtikara, K. Nature Prot. 2006, 1, 1112). Briefly, media was removed from the plate, and cells were fixed by the addition of 100 μL cold 10% trichloroacetic acid in water. After incubating at 4° C. for an hour, the plates were washed in water and allowed to dry. Sulforhodamine B was added as a 0.057% solution in 1% acetic acid (100 μL), and the plates were incubated at room temperature for 30 minutes, washed in 1% acetic acid, and allowed to dry. The dye was solubilized by adding 10 mM Tris base solution (pH 10.5, 200 μL) and incubating at room temperature for 30 minutes. Plates were read at λ=510 nm. IC50 values were determined from three or more independent experiments using TableCurve (San Jose, Calif.).

Assay [2] has as its system U-937 (hystiocytic lymphoma). Put plainly: 72-hour IC50 determination for non-adherent cells using MTS. It counts as cell-based, human. As to the method:
as §1, §2
(§4) In a 96-well plate, compounds were pre-added as DMSO stocks in triplicate to achieve a final concentration of 1%. DMSO and cell-free wells served as the live and dead control, respectively. U-937 (5,000 cells/well) cells were distributed in 100 μL media to the compound-containing plate. After 72 hours, cell viability was assessed by adding 20 μL of a PMS/MTS solution (Cory, A. H.; Owen, T. C.; Barltrop, J. A.; Cory, J. G. Cancer Commun. 1991, 3, 207) to each well, allowing the dye to develop at 37° C. until the live control had processed MTS, and reading the absorbance at λ=490 nm. IC50 values were determined from three or more independent experiments using TableCurve (San Jose, Calif.).

The subject of another assay is MCF-7 (breast carcinoma). Put plainly: 72-hour IC50 determination for adherent cells using sulforhodamine B (SRB). It counts as cell-based, human. The settings on record: error is standard deviation of the mean, n ≧ 3, read-out: MCF-7, 72-hour IC50 (Table E1-2). How it is done: (§5) Certain provided compounds were tested in culture against a panel of three supplementary human cancer cell lines representing three additional tumor histologies (H460, lung carcinoma; 786-O, renal carcinoma; MCF-7, breast carcinoma). As shown in Table E1-2, the ETPs retain their potency across the cell lines. In some embodiments, a provided compound is active in all cell lines. In some embodiments, a provide compound can be used to selectively target certain cells and/or cancers. […] Without the intention to be limited, Applicant notes that certain cell lines could be more sensitive to provided compounds; for example, U-937 and HeLa are slightly more sensitive to the ETPs than the other three cell lines.
as §2, §3

The subject of another assay is 786-O (renal carcinoma). Described as above. It counts as cell-based, human. The settings on record: error is standard deviation of the mean, n ≧ 3, read-out: 786-O, 72-hour IC50 (Table E1-2). How it is done: as §5, §2, §3
Another assay has as its system H460 (lung carcinoma). Described as above. In kind it is cell-based, human. The settings on record: error is standard deviation of the mean, n ≧ 3, read-out: H460, 72-hour IC50 (Table E1-2). As to the method:
as §5, §2, §3

A further assay deals with human cancer cell lines. Put plainly: Anticancer activity in human cancer cell lines, not tied to one cell line. It counts as cell-based. The settings on record: for IC50: Homo sapiens, cell line not named in the sentence (U-937 and HeLa screened), read-out: IC50 (did not display any anticancer activity); for anticancer activity, in words: human cancer cell lines, 72-hour exposure. As to the method:
as §1, §5, §3, §4

The mark [3] stands for this setting: Homo sapiens, HeLa, 72 h, read-out: HeLa, 72-hour IC50 (Table E1-1).
Where [4] appears, read: Homo sapiens, U-937, 72 h, read-out: U-937, 72-hour IC50 (Table E1-1).
Setting [5] is: 72-hour exposure, SRB, error is standard deviation of the mean, n ≧ 3, read-out: HeLa, 72-hour IC50 (Table E1-1).
[6] abbreviates: 72-hour exposure, SRB, error is standard deviation of the mean, n ≧ 3, read-out: HeLa, 72-hour IC50 (Table E1-2).
Where [7] appears, read: 72-hour exposure, MTS, error is standard deviation of the mean, n ≧ 3, read-out: U-937, 72-hour IC50 (Table E1-1).
Where [8] appears, read: 72-hour exposure, MTS, error is standard deviation of the mean, n ≧ 3, read-out: U-937, 72-hour IC50 (Table E1-2).
Where [9] appears, read: Homo sapiens, HeLa, 72-hour exposure, SRB, error is standard deviation of the mean, n ≧ 3, read-out: HeLa, 72-hour IC50 (Table E1-1).
[10] abbreviates: Homo sapiens, U-937, 72-hour exposure, MTS, error is standard deviation of the mean, n ≧ 3, read-out: U-937, 72-hour IC50 (Table E1-1).

Like-named read-outs stand apart in the source and are kept apart here. A value given as a limit tells only on which side of the number the result lay.

Take `CN1C(=O)[C@@]23C[C@]4(c5c[nH]c6ccccc56)c5ccccc5N[C@@H]4N2C(=O)[C@@H]1SS3` [Compound 10, (+)-12-deoxybionectin A]: the IC50 (in general, the concentration at which inhibition is half-maximal) in assay [1] (setting [3]) came to 117 ± 26 nM; in assay [1] (Homo sapiens, HeLa, 72 h, read-out: HeLa, 72-hour IC50 (Table E1-2)) it was 117 ± 26 nM; in assay [2] (setting [4]) it was 17.4 ± 1.1 nM; in assay [2] (Homo sapiens, U-937, 72 h, read-out: U-937, 72-hour IC50 (Table E1-2)), 17.4 ± 1.1 nM; in the assay with MCF-7 (breast carcinoma) (Homo sapiens, MCF7, 72-hour exposure) it was 156 ± 18 nM; in the assay on 786-O (renal carcinoma) (Homo sapiens, 786-0, 72-hour exposure) it was 181 ± 26 nM. In addition, in the assay on H460 (lung carcinoma) (Homo sapiens, NCI-H460, 72-hour exposure), the IC50 was found to be 215 ± 100 nM.
On to `CC(=O)OC[C@]12SS[C@@]3(C[C@]4([C@]56C[C@@]78SS[C@@](COC(C)=O)(C(=O)N7[C@H]5Nc5ccccc56)N(C)C8=O)c5ccccc5N[C@@H]4N3C1=O)C(=O)N2C` [Compound 15], for which the IC50 in assay [1] (setting [5]) was 14.1 ± 7.4 nM; in assay [1] (setting [6]) it was 14.1 ± 7.4 nM; in assay [2] (setting [7]), 4.7 ± 1.3 nM; in assay [2] (setting [8]) it was 4.7 ± 1.3 nM; in the assay with MCF-7 (breast carcinoma) (72-hour exposure), 77 ± 36 nM; in the assay with 786-O (renal carcinoma) (72-hour exposure), 95 ± 23 nM. Besides, the IC50 in the assay on H460 (lung carcinoma) (72-hour exposure) worked out at 140 ± 82 nM.
Turning to `CC(=O)OC[C@]12SSS[C@@]3(C[C@]4([C@]56C[C@@]78SSS[C@@](COC(C)=O)(C(=O)N7[C@H]5Nc5ccccc56)N(C)C8=O)c5ccccc5N[C@@H]4N3C1=O)C(=O)N2C` [Compound 16], the concentration for half-maximal inhibition (IC50) turned out to be 70 ± 20 nM in assay [1] (setting [5]); 70 ± 20 nM in assay [1] (setting [6]); 9.7 ± 2.1 nM in assay [2] (setting [7]); 9.7 ± 2.1 nM in assay [2] (setting [8]); 263 ± 98 nM in the assay with MCF-7 (breast carcinoma) (72-hour exposure); 204 ± 40 nM with 786-O (renal carcinoma) (72-hour exposure). In addition, the 50% inhibitory concentration (IC50) in the assay on H460 (lung carcinoma) (72-hour exposure) was found to be 187 ± 79 nM.
On to `CC(=O)OC[C@]12SSS[C@@]3(C[C@]4([C@]56C[C@@]78SSS[C@@](COC(C)=O)(C(=O)N7[C@H]5N(C(=O)C(F)(F)F)c5ccccc56)N(C)C8=O)c5ccccc5N(C(=O)C(F)(F)F)[C@@H]4N3C1=O)C(=O)N2C` [Compound 17], for which the half-inhibitory concentration (IC50) in assay [1] (setting [5]) was 28.1 ± 2.2 nM; in assay [1] (setting [6]), 28.1 ± 2.2 nM; in assay [2] (setting [7]), 8.9 ± 2.3 nM; in assay [2] (setting [8]), 8.9 ± 2.3 nM; in the assay on MCF-7 (breast carcinoma) (72-hour exposure) it was over 333 nM; in the assay with 786-O (renal carcinoma) (72-hour exposure), 189 ± 26 nM. For the same molecule, in the assay with H460 (lung carcinoma) (72-hour exposure), the IC50 was 179 ± 88 nM.
As to `COCS[C@H]1C(=O)N2[C@H]3Nc4ccccc4[C@@]3(c3c[nH]c4ccccc34)C[C@]2(SCOC)C(=O)N1C` [Compound 41, C3-(Indol-3′-yl)bis(S-MOM)ether], the IC50 was over 10 µM with human cancer cell lines, over 10000 nM in assay [1] (setting [9]) and over 10000 nM in assay [2] (setting [10]).
With `CN1C(=O)[C@@]2(SCc3ccccc3)C[C@]3(c4cn(C(=O)OC(C)(C)C)c5ccccc45)c4ccccc4N(S(=O)(=O)c4ccccc4)[C@@H]3N2C(=O)[C@@H]1SCc1ccccc1` [Compound 43, C3-(N-Boc-indol-3′-yl)bis(benzylthioether)], the IC50 was over 10 µM with human cancer cell lines, over 10000 nM in assay [1] (setting [9]) and over 10000 nM in assay [2] (setting [10]).
For the molecule `CSS[C@H]1C(=O)N2[C@H]3N(S(=O)(=O)c4ccccc4)c4ccccc4[C@@]3(c3c[nH]c4ccccc34)C[C@]2(SSC)C(=O)N1C` [Compound 46, C3-(Indol-3′-yl)bis(methyldlsulfane)], the “anticancer activity, in words” value with human cancer cell lines is recorded as “competent anticancer agents”. Moreover, the figures for the half-inhibitory concentration (IC50) in assay [1] (setting [9]) and in assay [2] (setting [10]) were 36.6 ± 3.9 nM and 20.4 ± 9 nM, respectively.
Regarding `CN1C(=O)[C@@]23C[C@]4(c5c[nH]c6ccccc56)c5ccccc5N(S(=O)(=O)c5ccccc5)[C@@H]4N2C(=O)[C@]1(C)SS3` [Compound 60, C3-(Indol-3′-yl) epidithiodiketopiperazines], the half-inhibitory concentration (IC50) in assay [1] (setting [5]) came to 67 ± 11 nM; in assay [1] (setting [6]), 67 ± 11 nM; in assay [2] (setting [7]) it was 56 ± 23 nM; in assay [2] (setting [8]) it was 56 ± 23 nM; with MCF-7 (breast carcinoma) (72-hour exposure) it was 327 ± 36 nM; in the assay with 786-O (renal carcinoma) (72-hour exposure) it was 907 ± 48 nM. The half-maximal inhibitory concentration (IC50) in the assay on H460 (lung carcinoma) (72-hour exposure) is 165 ± 65 nM.
Regarding `CCCC12CC34SSC(C)(C(=O)N3C1N(S(=O)(=O)c1ccccc1)c1ccccc12)N(C)C4=O` (stereo not drawn) [Compound 61, β-C3-Propyl epidithiodiketopiperazine], in the assay on human cancer cell lines, the “anticancer activity, in words” value was “substantially lower potencies”. Further, the 50% inhibitory concentration (IC50) in assay [1] (setting [3]) and in assay [2] (setting [4]) was over 1000 nM each time.
Consider `CN1C(=O)[C@]23C[C@]4(c5c[nH]c6ccccc56)c5ccccc5N(S(=O)(=O)c5ccccc5)[C@@H]4N2C(=O)[C@@]1(C)SS3` [Compound 62, C3-(Indol-3′-yl) epidithiodiketopiperazines], for which the “anticancer activity, in words” value in the assay on human cancer cell lines was “inactive”. In addition, the IC50 in assay [1] (setting [5]) and in assay [2] (setting [7]) was over 1000 nM throughout.
Take `CCCC12CC34SSC(C)(C(=O)N3C1N(S(=O)(=O)c1ccccc1)c1ccccc12)N(C)C4=O` (stereo not drawn) [Compound 63, α-C3-Propyl epidithiodiketopiperazine]: the “anticancer activity, in words” value in the assay with human cancer cell lines was “inactive”. Besides, the half-maximal inhibitory concentration (IC50) was over 1000 nM in assay [1] (read-out: HeLa, 72-hour IC50 (Table E1-1), 72-hour exposure, SRB, error is standard deviation of the mean, n ≧ 3) and over 1000 nM in assay [2] (read-out: U-937, 72-hour IC50 (Table E1-1), 72-hour exposure, MTS, error is standard deviation of the mean, n ≧ 3).
Consider `CCC[C@]12C[C@@]34SC(=S)S[C@@](C)(C(=O)N3C1N(S(=O)(=O)c1ccccc1)c1ccccc12)N(C)C4=O` (some centres unmarked) [Compound 65, C3-Propyl dithiepanethiones], for which, in the assay on human cancer cell lines, the “anticancer activity, in words” value is “substantially lower potencies”. For the same molecule, the IC50 in assay [1] (setting [9]) and in assay [2] (setting [10]) was over 1000 nM throughout.
As to `CN1C(=O)C23CC4(c5c[nH]c6ccccc56)c5ccccc5N(S(=O)(=O)c5ccccc5)C4N2C(=O)C1(C)SC(=S)S3` (centres unmarked) [Compound 66, C3-(Indo-3′-v)dithiepanethiones], the “anticancer activity, in words” value in the assay with human cancer cell lines is “inactive”. Further, the half-inhibitory concentration (IC50) in assay [1] (setting [5]) and in assay [2] (setting [7]) was over 1000 nM in each case.
`CCC[C@]12CC34SC(=S)SC(C)(C(=O)N3C1N(S(=O)(=O)c1ccccc1)c1ccccc12)N(C)C4=O` (some centres unmarked) [Compound 67, C3-Propyl dithiepanethiones]: the “anticancer activity, in words” value in the assay on human cancer cell lines was “inactive”. The IC50 in assay [1] (setting [9]) and in assay [2] (setting [10]) was over 1000 nM in each case.
